# Patent US6794148B2, “High speed, automated, continuous flow, multi-dimensional molecular selection and analysis” (PerSeptive Biosystems, Inc., priority 1995, dated 2004)
# Legend:
# LPS (serotype O55;B5) = assay: LPS binding, tandem weak anion exchange / reverse phase columns with varied wash volumes; settings: for wash volumes of column 1 needed to reduce peak by 50%: 1 CV=1.66 ml, 50 mM Tris pH 6.7; for retention on weak anion exchange column 1: with/without preincubation with LPS
# Excerpt: We used a tandem column method employing POROS™ columns on a BioCAD™ 20 Workstation. Column 1 was a weak anion exchange column (PI/M; 4.6×100 mm) while column 2 was a reverse phase column (R2/H; 4.6×100 mm). […] LPS, however, would be expected to interact with this column due to the presence of two charged phosphate groups at the lipid A region of the molecule. […] Material retained on column 1 was eluted directly onto column 2 where it was captured. Elution of column 2 allowed the resolution of peaks arising from column 1.
# Screening the library for binding to LPS was performed as follows. The cationic fraction of the XXXFL library was incubated (30 min/RT) with 1-3 mg/ml of LPS (serotype O55;B5; Sigma Chemical Co., St. Louis, Mo.) in 50 mM Tris, pH 6.7. At this time the incubation mixture was injected and run over column 1 on the BioCAD™ Workstation (equilibrated in the same buffer). The column was run at 4 ml/min. After washing with the appropriate number of column volumes of equilibration buffer (1 CV=1.66 ml), the column was purged and eluted (using 8 mM HCl, 1M NaCl) directly onto column 2 by switching the latter column in line with column 1 during the elution process. Material captured on column 2 was eluted using a gradient from 12 mM HCl in water to 80% ACN, 6 mM HCl. Peaks were collected, further purified by rerunning on a vydac C-18 column (4.6×250 mm), and analyzed by Mass Spectrometry (on a Voyager™ MALDI-TOF instrument; PerSeptive Biosystems, Framingham, Mass.) and peptide sequencing (Hewlett Packard). Peptides identified were synthesized and binding of these molecules to the Lipid A region of the LPS was confirmed by measuring the ability of PmxB or Pentamidine to compete with the peptide for this site.
# The number of wash volumes required to reduce the peak for these agents correlated with the reported affinities of these agents for LPS; PmxB (Kd […]) was reduced 50% after 42 CVs washing of column 1 while pentamidine (Kd 100 nM) required a higher number of washes for a similar reduction (46 CVs). Using this methodology we could rapidly examine which peaks from the library were capable of binding to LPS with the highest affinity since, upon exposure to higher numbers of wash volumes only the peptides with higher affinity for the target were retained. […] Three such peaks from the XXXFL library and 3 peaks from the CXXXC library were further purified and characterized by MS and peptide sequencing. […] The other peptides will be synthesized and studied in a similar manner although another approach being considered is that a sublibrary of the format ZZZFL (where Z represents either R or K) be screened to identify the member with the highest affinity. Candidates purified from the cyclic library are still awaiting sequencing.
# LPS = settings: read-out: Kd for LPS (reported affinity); cited from earlier work
# mouse IgG (Fc fragment) = assay: Solution phase peptide screening (SEC - reversed phase) of protein A and G digests; format: binding; settings: native and denatured recombinant protein A and G digests
# Method: 5 mg each of either mouse IgG (whole) or the Fc fragment was incubated with 20 mg of natural library and protein A and G digests, respectively. The mixture was dissolved in 1 ml of a mixture of 25 mM sodium phosphate buffer and 0.15 M NaCl (pH 7) overnight at 4° C. After incubation, several chromatographic runs through the Superdex SEC and RP columns were conducted with 200 of the protein and peptide mixture injected through the Superdex column during each run. The flow rate for the Superdex column was 0.75 m/min with the 25 mM sodium phosphate buffer and 0.15 M NaCl (pH 7) mixture. The early eluting protein peak was collected directly onto the RP column. The remaining portion of the peak was washed off the SEC. The mouse IgG (whole) or Fc fragment and its associated peptides were then eluted from the RP column under the following conditions:
# Fractions corresponding to bound peptide peaks were lyophilized and redissolved in 1001 of 0.1% TFA/DIW for mass spec analysis by MALDI-TOF.
# Concanavalin A (Con A) [1] = target: Concanavalin A (Con A) (Canavalia ensiformis, UniProt P02866)
# Excerpt: (§1) The lectin Concanavalin A (Con A) has been used. Ligands were screened for specific binding to the sugar site of Con A as an example of the bimolecular approach to screening a mixture of components for interaction with a target. Biotinylated succinyl Con A was immobilized onto a streptavidin POROS™ support (BA cartridge, 2.1×30 mm). […] After exposing the column to 10 CVs of CAB buffer (0.2 m/min.), the remaining peptides were acid eluted onto a RP column. These peptides were eluted from a RP HPLC column using an acetonitrile gradient and the fractions were collected, pooled and sequenced. Recovery of each amino acid was expressed as a percentage of the total amount of amino acids recovered at each cycle of sequencing (AA %). Amino acid enrichment was then expressed for each amino acid as follows: [formula]
# Concanavalin A (Con A) [2] = tested on: Concanavalin A (Con A)
# Excerpt: as §1
# IgG = IgG purification from human serum on POROS-immobilized peptide column; format: binding
# Method: 1 g POROS™ AL (aldehyde) was suspended in 10 mM PBS (pH 7.5) containing 100 mg sodium cyanoborohydride (NaCNBH3). 5 to 20 mg of each of the peptides selected by various screening procedures was added to the resin and the mixture was shaken overnight at room temperature. 100 mg sodium borohydride (NaBH4) was then added and the mixture was shaken for another 2 hrs. The beads were then washed with PBS and packed into 4.6 mm D×100 mm L column using POROS™ Self Pack® device.
# 100 μl of 1:10 diluted serum was injected onto the peptide column which was equilibrated with 20 mM tris (pH 8.0) at 5 ml/min. The bound proteins were eluted with 0-1 M NaCl gradient in 15 CVs. Fractions were collected manually and concentrated by Speed Vac for subsequent analysis by SDS-polyacrylamide gel electrophoresis.
# The […] (SEQ ID NO: 8) peptide with heme group was immobilized on POROS™AL® (aldehyde) via the N-terminal end. This POROS™-peptide conjugate was used to separate IgG from serum at pH 8 under a 0-1 M NaCl gradient. […] To determine the nature of interaction, the purification profile of IgG separated on the POROS™-peptide column was compared with the IgG purified on standard ion exchange columns such as POROS™-CM and POROS™ HQ. […] The effect of the varying loading densities of peptide (from 10 mg/g POROS™ to 100 mg/g POROS™) on specificity and capacity for IgG binding was also investigated. The specificity of the peptide for IgG binding was also investigated. […] At low loading density (10 mg/g POROS™) IgG bound primarily via ionic interaction requiring elution of bound IgG with salt gradient. At higher loading density ([…]) IgG bound strongly and eluted with acid buffer. The binding capacity varied from 1-2 mg/ml column volume at lower ligand density to 30 mg/ml column volume at higher ligand densities.
# A simplified analog of the heme peptide ([…]) (SEQ ID NO: 9) was synthesized and immobilized on POROS™ AL via the N-terminal end. […] The bound IgG was eluted from the GAQGHTVBK (SEQ ID NO: 9)-POROS™ column with 100 mM NaCl. The IgG binding capacity was determined to be 5 mg/ml column volume. Loading densities from 20 mg/g to 40 mg peptide /g POROS™ were evaluated. At these ligand densities, the specificity of IgG binding was not affected, but the capacity was reduced.
# [3] = tested on: monoclonal antibody (mouse IgG2a, clone 3E-7) raised against human β-endorphin; assay: Peptide binding to immobilized anti-β-endorphin mAb affinity column in tandem with C-18 column
# Method: The purchased mAb (280 mg resuspended in 1 ml H2O) was passed over an XL cartridge (2.1×30 mm) consisting of protein-G coupled to POROS™ perfusion chromatographic media (PerSeptive Biosystems, Framingham, Mass.) by making […] injections on a BioCAD™ 20 Workstation (PerSeptive Biosystems, Framingham, Mass.). Protein-G binds to the Fc region of antibodies with high affinity. The mAb was subsequently cross-linked to the protein G using the standard methods and materials provided with the XL column. In brief, this consisted of passing 14 ml of cross-linking solution (100 mM triethanolamine, pH 8.5, 7.8 mg/ml dimethyl pimelimidate (DMP)) over the column at a flow rate of 0.5 ml/mm. The cross-linking reagent was quenched by subsequent injection of 2 ml of 100 mM monoethanolamine, pH 9.0. The sensor cartridge was washed with PBS, pH 7.4 at 0.5 ml/min for 2 min followed by a further injection of 2 ml of quench solution and washed as above. […] A second XL column (without antibody) was treated with cross-linking reagents and washed as for the affinity column for use as a “control column”.
# The target immobilized affinity column prepared above was plumbed in tandem mode to a vydac reversed phase C-18 column on a BioCAD™ Workstation using the configuration shown in FIG. 5. This configuration allowed independent equilibration and washing of the affinity and vydac columns while allowing in line elution of material bound to the mAb-column directly onto the vydac column. The reverse phase vydac column could then be eluted independently of the affinity column.
# This reversed phase column was then developed with a gradient of acetonitrile (4% ACN/12 mM HCl to 80% ACN/6 mM HCl over 18 min; flow rate 1 ml/min). Both columns were re-equilibrated in their respective starting buffers prior to the next injection.
# The peptide solution (20 nmol) was injected onto the affinity column and then unbound peptide was removed by washing the column with PBS, pH, 7.4. Peptides affinity captured by the antibody was eluted from the “target column” directly onto the C-18 column for resolution.
# [4] = target: Monoclonal antibody (mAb), mouse IgG2a, clone 3E-7, raised against human β-endorphin (mouse); assay: 20 nmol peptide injected on immobilized mAb column, acid eluted onto C-18 column; peak area
# [5] = target: Monoclonal antibody (mAb), mouse IgG2a, clone 3E-7, raised against human β-endorphin (mouse); assay: increasing quantities of peptide injected on immobilized mAb column; peak height on C-18 column
# [6] = target: human IgG (whole), pure or from human serum (human); assay: peptide immobilized on POROS AL via the N-terminal end; IgG binding capacity of the column
molecule,measurement,setting,value
N=C(N)c1ccc(OCCCCCOc2ccc(C(=N)N)cc2)cc1 [pentamidine],wash volumes of column 1 needed to reduce peak by 50%,LPS (serotype O55;B5),46 CVs
same,retention on weak anion exchange column 1,LPS (serotype O55;B5),retained on column 1 under the conditions used only after preincubation in the presence of LPS
same,Kd,LPS,100 nM
EKEPEVID (OTHER INFORMATION: Description of Artificial Sequence: Protein fragment derived from the tryptic digest of protein A and G) [peptide from recombinant Protein G digest],selected as binder in solution phase screening,mouse IgG (Fc fragment),identified
GDAPTPEKEPEASI (OTHER INFORMATION: Description of Artificial Sequence: Protein fragment derived from the tryptic digest of protein A and G) [peptide from recombinant Protein G digest],selected as binder in solution phase screening,mouse IgG (Fc fragment),identified
HHRSY,displacement by competing sugar ligand,Concanavalin A (Con A) [1]; high concentration of competing sugar ligand,displaced somewhat
same,binding to Con A immobilized on the column,Concanavalin A (Con A) [1]; synthesized peptide,capable of binding specifically to Con A
same,binding to control column,Concanavalin A (Con A) [2],little binding to the control column
KKRFL (OTHER INFORMATION: Description of Artificial Sequence: synthetic peptide),affinity for LPS relative to Pentamidine,LPS (serotype O55;B5),much lower than the latter molecule
same,competition for LPS binding,LPS (serotype O55;B5); competition experiment with Pentamidine,displaced by Pentamidine
same,binding to LPS,"LPS (serotype O55;B5); synthesized peptide, same paradigm",demonstrated to bind to LPS
TVTEK (OTHER INFORMATION: Description of Artificial Sequence: Protein fragment derived from the tryptic digest of protein A and G),IgG binding affinity relative to proteins A & G,IgG; salt gradient suffices for elution,"bind IgG, but with less affinity"
TVTEKPE (OTHER INFORMATION: Description of Artificial Sequence:Protein fragment derived from the tryptic digest of protein A and G) [peptide from recombinant Protein G digest],selected as binder in solution phase screening,mouse IgG (Fc fragment),identified
TVTEKPEV (immobilized on POROS; OTHER INFORMATION: Description of Artificial Sequence: Synthetic peptide corresponding to a part of the Fc binding domain of recombinant protein G),specificity of IgG binding from human serum,"IgG; pH 8, immobilized on POROS via N-terminal end",comparable specificity as the POROS™-Protein A conjugate
YEYFL (OTHER INFORMATION: Description of Artificial Sequence: synthetic peptide),retention by the mAb affinity column,[3]; parallel experiment,not retained
YGGFL,"amount of the peptide recovered from affinity column, calculated from peak area","[3]; 20 nmol injected, PBS pH 7.4 wash, eluted onto C-18",approximately 1.2 nmoles
same,effect of injection flow rate on amount of peptide bound/recovered,[3]; flow rate 0.2 ml/min to 5 ml/min,did not affect the recovery
same,"amount of bound peptide at saturation, calculated from peak height",[3]; increasing quantities injected,about 1.2 nmoles
polymyxin B,wash volumes of column 1 needed to reduce peak by 50%,LPS (serotype O55;B5),42 CVs
same,retention on weak anion exchange column 1,LPS (serotype O55;B5),retained on column 1 under the conditions used only after preincubation in the presence of LPS
synthetic peptide YGGFL (SEQ ID NO: 1),amount of the peptide recovered,[4],1.2 nmol
same,amount of the bound peptide at saturation,[5],1.2 nmol
"GAQGHTVEK [… (SEQ ID NO: 9), simplified analog of the heme peptide]",IgG binding capacity (mg/ml column volume),[6],5
